Values after ≈ are worked out from the molar mass of the structure shown. Read-outs that look alike come from different tables or passages of the source.
Tests used:
Assay type in all cases: physicochemical
[1] = Bulk density and flowability with ring shear tester; details: listed as Modification A
Experimental: (§1) Pilot manufacture batches producing Modification HA and Form A on kilogram scale were compared for their respective bulk powder properties. The particle size distribution (PSD) was determined according to the corresponding method for release. Other measurements were performed using technical methods known in the art or as described herein.

[2] = Hygroscopicity, storage and solubility conclusions; details: for Hygroscopicity: non-hygroscopic defined as water uptake at most 2 w-%, 0 to 95% RH, 25° C. (GMS/DVS)
Text: The term “non-hygroscopic” as used herein refers to a compound showing a water uptake of at most 2 w-% in the sorption cycle when measured with GMS (or DVS) at a relative humidity in the range of from 0 to 95% RH and a temperature of (25.0±0.1) ° C., based on the weight of the compound. Non-hygroscopic is preferably up to 0.2%.

[3] = Particle size distribution by Fraunhofer light diffraction; details: pilot manufacture batch, kilogram scale; listed as Modification A
Experimental: as §1
A few drops of the dispersing aid were added to an appropriate amount of test substance. The mixture was mixed intensively, e.g. on a vortex mixer, in order to wet the substance thoroughly and to form a smooth and homogeneous paste. The resultant paste was diluted with the dispersion liquid to a final volume of 3-6 ml and the dispersion mixed again. The cumulative volume distribution was determined using a laser light diffraction instrument as stated above. The parameters could be adjusted accordingly so that the test dispersion is representative, homogeneous and well dispersed.
Particle sizes were determined at the undersize values of 10%, 50% and 90% (×10, ×50, ×90), and additional values in question, from the cumulative volume distribution.

[4] = Water activity experiments of Form A
Experimental: About 100 mg of Form A is equilibrated with 0.5 mL solvent by stirring at RT or 50° C. The slurries are filtered. The wet cake is investigated by XRPD.

[5] = Solubility at 25° C., 24 hours slurry; details: for Final pH: 25° C.; for solubility at 24 h: 25 °C, thermodynamic from solid, read-out: Solubility at 25° C.
Experimental: A sample was weighed in a glass vial and solvent added to make a slurry followed by stirring or shaking at 25° C. for 24 hours. The amount of sample and solvents depends on the target concentration, e.g. if the target concentration is 10 mg/mL, the weight of the sample should be 10 mg and the amount of solvent volume should be 1 mL. The solid and liquid are separated by centrifugation at 13000 rpm for 2 minutes with 0.2 μm membrane. The filtrate is then used for the solubility test after appropriate dilution. The diluent is from the UPLC method. The solids obtained after equilibration were analyzed by XRPD after being dried at 40° C. under vacuum for 2 hours. DSC/TGA analysis was conducted for selected samples.

[6] = Behaviour under compression, grinding and granulation with water
[7] = Stability testing, solid state bulk (UPLC, color, XRPD, TGA); design: key: A: No change of color; B: Slight discoloration
Experimental: (§2) X-ray powder diffraction (XRPD) analysis of all polymorph forms was performed using a Bruker D8 Discover x-ray diffractometer with XYZ stage. Measurements were taken at about 40 kV and 1 mA under the following conditions:
(§3) Crystalline Monohydrate Form HA was analysed by thermogravimetric analysis (TGA) using a Discovery Thermogravimetric Analysis Calorimeter from TA instruments under the following conditions (see Table 6).
(§4) No notable change in chemical purity, nor change in XRPD, nor change in TGA, was observed.

[8] = as above
Experimental: as §2, §3, §4

[9] = as above; design: key: A: No change of color; details: Solid state
Experimental: as §2, §3, §4

[10] = Humidity exposure of amorphous form; details: ambient humidity or 92% RH
[11] = 50° C., water 0%/IPA 100%, aw 0.000
[12] = 50° C., water 1%/IPA 99%, aw 0.124
[13] = 50° C., water 3.2%/IPA 96.8%, aw 0.324
[14] = 50° C., water 100%/IPA 0%, aw 1.000
[15] = RT, water 0%/IPA 100%, aw 0.000
[16] = RT, water 100%/IPA 0%, aw 1.000
[17] = Solid state, 1 week 80° C./75% r.h.
[18] = Xenon light (approx. 1200 kLuxh)
[19] = Solid state, 1 week 50° C., closed container
[20] = Solid state, 1 week 50° C./75% r.h.
[21] = Solid state, 1 week 80° C., closed container

Structure (SMILES): Cc1ccc(NC(=O)c2ccnc(C(F)(F)F)c2)cc1-c1cc(OCCO)nc(N2CCOCC2)c1 [Form A, N-(3-(2-(2-hydroxyethoxy)-6-morpholinopyridin-4-yl)-4-methylphenyl)-2-(trifluoromethyl)isonicotinamide]
- Bulk flowability with ring shear tester, rating in words ([1]; under 1250 Pa normal stress): “very cohesive”
- Technical measurement of bulk flowability with ring shear tester ([1]; under 1250 Pa normal stress): 1.45
- Technical measurement of bulk density with ring shear tester ([1]; under no consolidation stress): 71 kg/m^3
- Relative solubility of forms [2]: more soluble than Form HA
- Solubility, overall rating [2]: adequate solubility
- Stability when stored in bulk quantities [2]: stable when stored in bulk quantities
- Hygroscopicity [2]: non-hygroscopic
- Diameter X of PSD measured during release, X50 [3]: X50: 8 μm
- Diameter X of PSD measured during release, X90 [3]: X90: 44 μm
- After 1 d equilibration (wet cake XRPD) [4, 11]: Form A
- After 5 d equilibration (wet cake XRPD) [4, 11]: Form A
- After 1 d equilibration (wet cake XRPD) [4, 12]: Form A
- After 5 d equilibration (wet cake XRPD) [4, 12]: Form A
- After 1 d equilibration (wet cake XRPD) [4, 13]: Form A
- After 5 d equilibration (wet cake XRPD) [4, 13]: Form A
- After 1 d equilibration (wet cake XRPD) [4, 14]: Form A
- After 5 d equilibration (wet cake XRPD) [4, 14]: Form A
- After 1 d equilibration (wet cake XRPD) [4, 15]: Form A
- After 5 d equilibration (wet cake XRPD) [4, 15]: Form A
- After 1 d equilibration (wet cake XRPD) ([4]; RT, water 1%/IPA 99%, aw 0.120): Form A
- After 5 d equilibration (wet cake XRPD) ([4]; RT, water 1%/IPA 99%, aw 0.120): Form A
- After 1 d equilibration (wet cake XRPD) ([4]; RT, water 3.2%/IPA 96.8%, aw 0.316): Form A + HA
- After 1 d equilibration (wet cake XRPD) [4, 16]: Form A
- After 5 d equilibration (wet cake XRPD) [4, 16]: Form A
- Time for complete conversion of Form A to Monohydrate HA ([4]; water activity of 0.3, room temperature): 5 days
- Solubility at 25° C. ([5]; 0.01N HCl, pH 2.0): 1.4 µg/mL (≈ 2.79 µM)
- Final pH ([5]; 0.01N HCl, pH 2.0): 2.16
- Solubility at 25° C. ([5]; 0.1N HCl, pH 1.0): 292.9 µg/mL (≈ 583 µM)
- Final pH ([5]; 0.1N HCl, pH 1.0): 1.07
- Final pH ([5]; Acetate buffer, pH 4.7): 4.82
- Final pH ([5]; Borate buffer, pH 9.0): 9.01
- solubility at 24 h ([5]; FaSSIF, pH 6.5, fassif, FaSSIF, pH 6.5): 0.8 µg/mL (≈ 1.59 µM)
- Final pH ([5]; FaSSIF, pH 6.5): 6.45
- Solubility at 25° C. ([5]; FeSSIF, pH 5.8): 41.3 µg/mL (≈ 82.2 µM)
- Final pH ([5]; FeSSIF, pH 5.8): 5.82
- solubility at 24 h ([5]; N,N-dimethylformamide, organic solvent or mixture, N,N-Dimethylformamide): > 10000 µg/mL
- Final pH ([5]; Phosphate buffer, pH 6.8): 6.74
- Solubility at 25° C. ([5]; SGF, pH 2.0): 22 µg/mL (≈ 43.8 µM)
- Final pH ([5]; SGF, pH 2.0): 2.05
- Final pH ([5]; Water): 8.93
- solubility at 24 h ([5]; acetate buffer, pH 4.7, aqueous buffer, Acetate buffer, pH 4.7): < 0.3 µg/mL
- solubility at 24 h ([5]; acetonitrile, organic solvent or mixture, Acetonitrile): > 10000 µg/mL
- solubility at 24 h ([5]; borate buffer, pH 9, aqueous buffer, Borate buffer, pH 9.0): < 0.3 µg/mL
- solubility at 24 h ([5]; dichloromethane, organic solvent or mixture, Dichloromethane): > 10000 µg/mL
- solubility at 24 h ([5]; ethanol, organic solvent or mixture, Ethanol): > 10000 µg/mL
- solubility at 24 h ([5]; ethyl acetate, organic solvent or mixture, Ethyl acetate): > 10000 µg/mL
- solubility at 24 h ([5]; phosphate buffer, pH 6.8, aqueous buffer, Phosphate buffer, pH 6.8): < 0.3 µg/mL
- solubility at 24 h ([5]; water, water, Water): < 0.3 µg/mL
- Physical form upon granulation with water or compression [6]: remains unchanged
- Crystallinity when compressed ([6]; pressures of 3 to 6 MPa): slight decrease in crystallinity

Structure (SMILES): Cc1ccc(NC(=O)c2ccnc(C(F)(F)F)c2)cc1-c1cc(OCCO)nc(N2CCOCC2)c1 [Form B, N-(3-(2-(2-hydroxyethoxy)-6-morpholinopyridin-4-yl)-4-methylphenyl)-2-(trifluoromethyl)isonicotinamide]
- Relative solubility of forms [2]: more soluble than Form A
- Solubility, overall rating [2]: adequate solubility
- Stability when stored in bulk quantities [2]: stable when stored in bulk quantities
- Hygroscopicity [2]: non-hygroscopic
- Color (CL) [7, 17]: B
- Color (CL) [7, 18]: B
- Solubility at 25° C. ([5]; 0.01N HCl, pH 2.0): 141.2 µg/mL (≈ 281 µM)
- Final pH ([5]; 0.01N HCl, pH 2.0): 2.04
- Solubility at 25° C. ([5]; 0.1N HCl, pH 1.0): 1026.4 µg/mL (≈ 2040 µM)
- Final pH ([5]; 0.1N HCl, pH 1.0): 1.02
- Solubility at 25° C. ([5]; Acetate buffer, pH 4.7): < 0.2 µg/mL
- Final pH ([5]; Acetate buffer, pH 4.7): 4.78
- Solubility at 25° C. ([5]; Acetonitrile): >10000 µg/mL
- Solubility at 25° C. ([5]; Borate buffer, pH 9.0): < 0.2 µg/mL
- Final pH ([5]; Borate buffer, pH 9.0): 8.97
- Solubility at 25° C. ([5]; Dichloromethane): >10000 µg/mL
- Solubility at 25° C. ([5]; Ethanol): >10000 µg/mL
- Solubility at 25° C. ([5]; Ethyl acetate): >10000 µg/mL
- Solubility at 25° C. ([5]; FaSSIF, pH 6.5): 1.4 µg/mL (≈ 2.79 µM)
- Final pH ([5]; FaSSIF, pH 6.5): 6.91
- Solubility at 25° C. ([5]; FeSSIF, pH 5.8): 137 µg/mL (≈ 273 µM)
- Final pH ([5]; FeSSIF, pH 5.8): 6.08
- Solubility at 25° C. ([5]; N,N-Dimethylformamide): >10000 µg/mL
- Solubility at 25° C. ([5]; Phosphate buffer, pH 6.8): < 0.2 µg/mL
- Final pH ([5]; Phosphate buffer, pH 6.8): 6.75
- Solubility at 25° C. ([5]; SGF, pH 2.0): 2.1 µg/mL (≈ 4.18 µM)
- Final pH ([5]; SGF, pH 2.0): 2.02
- Solubility at 25° C. ([5]; Water): < 0.2 µg/mL
- Final pH ([5]; Water): 8.11
- solubility at 24 h ([5]; heptane, organic solvent or mixture, Heptane): < 0.2 µg/mL
- Bulk (XRPD) [8, 19]: no change
- DP %, Bulk (UPLC) [8, 19]: 2.46%
- Bulk (XRPD) [8, 20]: no change
- DP %, Bulk (UPLC) [8, 20]: 2.49%
- Bulk (XRPD) [8, 21]: no change
- DP %, Bulk (UPLC) [8, 21]: 2.12%
- Bulk (XRPD) [8, 17]: changed
- DP %, Bulk (UPLC) [8, 17]: 3.32%
- Bulk (XRPD) [8, 18]: no change
- DP %, Bulk (HPLC) [8, 18]: 3.66%
- Stability upon exposure to elevated temperature or humidity ([8]; degradation products and physical form): relatively stable
- XRPD pattern upon grinding, compression and granulation with water [6]: did not change
- Color (CL) ([9]; 1 week 50° C., closed container): A
- Color (CL) ([9]; 1 week 50° C./75% r.h.): A
- Color (CL) ([9]; 1 week 80° C., closed container): A

Structure (SMILES): Cc1ccc(NC(=O)c2ccnc(C(F)(F)F)c2)cc1-c1cc(OCCO)nc(N2CCOCC2)c1 [amorphous form, N-(3-(2-(2-hydroxyethoxy)-6-morpholinopyridin-4-yl)-4-methylphenyl)-2-(trifluoromethyl)isonicotinamide]
- Physical form stability under humidity [10]: remains stable and does not convert to HA

Source: US12187703B2, “Crystalline forms of N-(3-(2-(2-hydroxyethoxy)-6-morpholinopyridin-4-yl)-4-methvlphenyl)-2 (trifluoromethyl)isonicotinamide as Raf inhibitors for the treatment of cancer” (NOVARTIS AG, priority 2019, dated 2025)
